Reference: US4861798A, “Lipoxygenase inhibitory compounds” (Bristol-Myers Company, priority 1987, dated 1989)
Like-named read-outs stand apart in the source and are kept apart here. Each block holds one compound with its values, some of them ahead of it.

Tests used:
Type in all cases: cell-based
[1] = molecular target: T1, Human Platelet CO (Homo sapiens, UniProt P23219); assay: Inhibition of CO, human platelet; settings: for IC50: 95% confidence interval given for some; for inhibition at 100 µM: read-out: % I Human Platelet CO
T1 construct: Human neutrophils and platelets were obtained from the blood of normal volunteers; endogenous in cells; host or cells: human platelets from blood of normal volunteers
T1 sequence (P23219 24-599): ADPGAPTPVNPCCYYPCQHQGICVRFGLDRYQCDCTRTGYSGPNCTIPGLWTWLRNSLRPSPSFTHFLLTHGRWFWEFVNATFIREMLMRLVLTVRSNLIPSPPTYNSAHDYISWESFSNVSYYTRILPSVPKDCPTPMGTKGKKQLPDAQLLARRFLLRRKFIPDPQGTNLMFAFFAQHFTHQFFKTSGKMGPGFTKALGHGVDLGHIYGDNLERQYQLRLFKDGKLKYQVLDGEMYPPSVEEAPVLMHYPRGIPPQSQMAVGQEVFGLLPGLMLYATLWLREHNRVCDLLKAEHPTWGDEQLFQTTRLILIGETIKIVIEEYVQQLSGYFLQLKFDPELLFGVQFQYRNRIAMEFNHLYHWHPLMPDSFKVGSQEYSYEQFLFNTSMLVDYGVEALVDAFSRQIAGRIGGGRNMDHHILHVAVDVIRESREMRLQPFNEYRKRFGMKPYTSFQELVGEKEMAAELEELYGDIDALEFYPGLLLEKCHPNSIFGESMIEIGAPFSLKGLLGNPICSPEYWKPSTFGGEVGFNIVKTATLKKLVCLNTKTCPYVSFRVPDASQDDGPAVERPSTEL

[2] = molecular target: T2, Human Platelet 12-LPO (Homo sapiens, UniProt P18054); assay: Inhibition of 12-LPO, human platelet; settings: for inhibition at 100 µM: read-out: % I Human Platelet 12-LPO; for IC50: 95% confidence interval
T2 construct: Human neutrophils and platelets were obtained from the blood of normal volunteers; endogenous in cells; host or cells: human platelets from blood of normal volunteers
T2 sequence (P18054 1-663): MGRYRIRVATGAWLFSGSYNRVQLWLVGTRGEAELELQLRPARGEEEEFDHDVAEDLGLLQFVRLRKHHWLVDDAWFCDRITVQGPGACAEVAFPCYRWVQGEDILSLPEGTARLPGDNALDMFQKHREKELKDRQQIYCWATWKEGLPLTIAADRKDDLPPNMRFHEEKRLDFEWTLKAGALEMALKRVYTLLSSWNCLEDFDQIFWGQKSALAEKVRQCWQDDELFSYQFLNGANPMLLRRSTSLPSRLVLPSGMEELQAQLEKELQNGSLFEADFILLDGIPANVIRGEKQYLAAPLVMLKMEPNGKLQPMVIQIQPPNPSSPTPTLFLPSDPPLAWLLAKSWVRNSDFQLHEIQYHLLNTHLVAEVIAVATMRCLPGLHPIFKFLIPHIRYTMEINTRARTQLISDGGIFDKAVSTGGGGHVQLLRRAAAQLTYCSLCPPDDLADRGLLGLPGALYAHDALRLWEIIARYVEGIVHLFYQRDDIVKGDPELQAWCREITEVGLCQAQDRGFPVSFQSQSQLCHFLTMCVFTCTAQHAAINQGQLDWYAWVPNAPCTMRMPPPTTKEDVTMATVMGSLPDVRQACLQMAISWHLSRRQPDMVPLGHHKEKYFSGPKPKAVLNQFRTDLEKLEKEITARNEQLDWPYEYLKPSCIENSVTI

[3] = molecular target: T3, 5-lipoxygenase (Human Leukocyte/PMNL 5-LPO) (Homo sapiens, UniProt P09917); assay: Inhibition of 5-lipoxygenase (5-HETE formation) in human neutrophil/platelet system; settings: for % Inhibition at 100 μm: 4-alkoxyphenyl compounds
T3 construct: Human neutrophils and platelets were obtained from the blood of normal volunteers; endogenous in cells; host or cells: human blood leukocytes (neutrophils) of normal volunteers, with 0.1 to 0.5 platelets per leukocyte
T3 sequence (P09917 1-674): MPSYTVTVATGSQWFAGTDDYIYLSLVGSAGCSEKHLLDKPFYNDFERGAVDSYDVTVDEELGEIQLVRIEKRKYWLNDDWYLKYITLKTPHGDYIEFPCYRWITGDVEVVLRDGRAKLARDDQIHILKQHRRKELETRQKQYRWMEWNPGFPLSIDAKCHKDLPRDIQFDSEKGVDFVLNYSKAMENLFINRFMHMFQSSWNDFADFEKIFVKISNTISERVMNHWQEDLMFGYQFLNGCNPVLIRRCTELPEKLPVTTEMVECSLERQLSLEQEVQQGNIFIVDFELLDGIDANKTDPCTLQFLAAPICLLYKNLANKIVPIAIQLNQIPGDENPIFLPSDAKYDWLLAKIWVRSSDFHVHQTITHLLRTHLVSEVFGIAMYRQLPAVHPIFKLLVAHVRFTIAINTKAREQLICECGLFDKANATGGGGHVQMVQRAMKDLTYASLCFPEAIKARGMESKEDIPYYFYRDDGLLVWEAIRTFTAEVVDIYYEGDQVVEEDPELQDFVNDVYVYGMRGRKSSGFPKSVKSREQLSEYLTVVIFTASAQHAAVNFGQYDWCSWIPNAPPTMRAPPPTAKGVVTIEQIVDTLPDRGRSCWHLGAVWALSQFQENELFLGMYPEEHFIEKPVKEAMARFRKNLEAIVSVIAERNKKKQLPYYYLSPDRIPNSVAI
From the text: This test is a measure of the inhibition of the synthesis of lipoxygenase products generated by human neutrophils and platelets. The protocol is similar to that described in the article "Comparative Effects of Indomethacin, Acetylenic Acids, 15-HETE, NDGA and BW755C on the Metabolism of Arachidonic Acid in Human Leukocytes and Platelets", H. Solari, P. Braquet and P. Borgeat, Prost. Leuk. Med. 13, pp. 53-60, 1984.
Human neutrophils and platelets were obtained from the blood of normal volunteers. The blood was collected into tubes containing EDTA as an anticoagulant. The blood was centrifuged at 250×g for 15 minutes and the platelet rich plasma was removed. The cell fraction was mixed with an equal volume of 0.9% saline containing 10 mM dextrose and resuspended in Dulbecco's phosphate buffered saline (PBS) without Mg^++ and Ca^++ and was counted. The cell suspension was adjusted to give a leukocyte count of 2-3×10^7 cells/ml.
Test compounds were dissolved in ethanol and added to polypropylene tubes. To control tubes (drug-free) only ethanol was added. The ethanol was evaporated to dryness under a stream of argon and then 0.1 ml of the cell suspension (2-3×10^6 cells) was added. This mixture was pre-incubated for 5 minutes at 37° and then the reaction was initiated by addition of ^3 H-arachidonic acid, calcium ionophore (A23187), and calcium ion. The final concentration of each component was: arachidonic acid, 10 uM; A23187, […]; calcium ion, […]. After 5 minutes the incubations were stopped by addition of an equal volume of methanol. The tubes were spun at 11,000 g for 2 minutes to pellet the precipitated protein. The supernatant was analyzed by HPLC for 5-HETE. The formation of this product is indicative of 5-lipoxygenase activity. Test drugs were evaluated for their ability to inhibit 5-HETE formation. Percent inhibition of varying concentrations of test drugs was determined in duplicate by comparing the peak quantitation in the presence and absence (control) of drug. […] The IC50 values were calculated from log-dose response curves of pooled data from at least two experiments by linear regression analysis.
The activity was tested by the same method as in the previous example.
The enzyme inhibitory activity of these compounds was tested by the same method.

[4] = FIG. 1 table, 95% confidence interval, read-out: IC50 Human PMNL 5-LPO
[5] = Table I, R=H, phenylalkyl hydroxamic acids, read-out: IC50 5-LPO (Inhibition of Human Leukocyte 5-LPO)
[6] = text comparison with prior-art compound, read-out: IC50 in the 5-lipoxygenase inhibition test
[7] = PMNL, read-out: % I Human PMNL 5-LPO
[8] = ring-substituted 9-phenylnonanohydroxamic acids, read-out: IC50 (5-lipoxygenase)

Compound: CC(C)N(O)C(=O)CCCCc1ccccc1 [BMY30226]
inhibition at 100 µM ([1]; @ 100 μM): 25% | inhibition at 100 µM [2]: 59% | IC50 [3, 4]: 0.9 µM

Compound: CC(C)N(O)C(=O)CCCCCCCCCCCCCCc1ccccc1 [BMY30229]
% I Human Platelet CO ([1]; @ 100 μM): inactive | inhibition at 100 µM [2]: 10% | IC50 [3, 4]: 80 µM

Compound: CN(O)C(=O)CCCCCCCc1ccccc1 [BMY30208, N-methyl-8-phenyloctanohydroxamic acid]
IC50 [1]: 2.9 µM | IC50 [2]: 3.6 µM | IC50 [3, 4]: 0.1 µM

Compound: CC(C)N(O)C(=O)CCCCCCCc1ccccc1 [BMY30214]
IC50 [1]: 4.2 µM | IC50 [2]: 4.5 µM | IC50 [3, 4]: 0.16 µM

Compound: O=C(CCCCc1ccccc1)NO [BMY30083]
inhibition at 100 µM [3, 7]: 22% | IC50 [3, 5]: > 100 µM

Compound: COc1ccc(CCCCCCCCC(=O)NO)cc1 [BMY 30173, 9(4-Methoxyphenyl)nonanohydroxamic acid]
IC50 [3, 8]: 2.4 µM

Compound: O=C(CCCCCCCCCCCCc1ccccc1)NO [n=12, reference compound]
IC50 [3, 5]: > 50 µM

Compound: CCCCCCOc1ccc(CCCCCCCCC(=O)N(C)O)cc1 [BMY 30241, N-Methyl 9(4-Hexyloxyphenyl)nonanohydroxamic acid]
% Inhibition at 100 μm [3]: 95.9%

Compound: O=C(CCCCCCCCCCCCCCc1ccccc1)NO [BMY30152]
inhibition at 50 µM ([3]; PMNL, @ 50 μM, read-out: % I Human PMNL 5-LPO): 7.5% | IC50 [3, 5]: > 100 µM

Compound: CN(O)C(=O)CCCCCCCCCc1ccccc1 [BMY30217]
IC50 [1]: 4.6 µM | IC50 [2]: 5.5 µM | IC50 [3, 4]: 0.09 µM

Compound: CC(C)N(O)C(=O)CCCc1ccccc1 [BMY30227]
inhibition at 100 µM ([1]; @ 100 μM): 7% | inhibition at 100 µM [2]: 31% | IC50 [3, 4]: 0.7 µM

Compound: O=C(CCCCCCc1ccccc1)NO [Compound 2a]
IC50 [3, 6]: 20.9 µM

Compound: CN(O)C(=O)CCCCCCCCc1ccccc1 [BMY30223]
IC50 [1]: 2.1 µM | IC50 [2]: 2.5 µM | IC50 [3, 4]: 0.17 µM

Compound: CCCCOc1ccc(CCCCCCCCC(=O)NO)cc1 [BMY 30239, 9(4-Butoxyphenyl)nonanohydroxamic acid]
% Inhibition at 100 μm [3]: 56.0%

Results, then the compound that gave them:

IC50 [1]: 26 µM | inhibition at 100 µM [2]: 53% | IC50 [3, 4]: 12.2 µM
Compound: O=C(CCCCCCCc1ccccc1)NO [Compound 2b]

IC50 [3, 5]: > 100 µM
Compound: O=C(Cc1ccccc1)NO [n=1, reference compound]

% Inhibition at 100 μm [3]: 45.8%
Compound: CCCCCCOc1ccc(CCCCCCCCC(=O)N(O)C(C)C)cc1 [BMY 30240, N-isopropyl 9(4-hexyloxyphenyl)nonanohydroxamic acid]

IC50 [3, 5]: 10.3 µM
Compound: O=C(CCCCCCCCCCCc1ccccc1)NO [Compound 2e]

IC50 [3, 6]: > 100 µM
Compound: O=C(CCCCCc1ccccc1)NO [reference compound]

IC50 [3, 5]: > 100 µM
Compound: O=C(CCc1ccccc1)NO [n=2, reference compound]

IC50 [1]: 32 µM | inhibition at 100 µM [2]: 10% | IC50 [3, 4]: 11.6 µM
Compound: O=C(CCCCCCCCCc1ccccc1)NO [Compound 2c]

IC50 [1]: 7.6 µM | IC50 [2]: 26.7 µM | IC50 [3, 4]: 0.14 µM
Compound: CC(C)N(O)C(=O)CCCCCCCCCc1ccccc1 [BMY30218]

IC50 [1]: 18.4 µM | IC50 [2]: 13.9 µM | IC50 [3, 4]: 0.18 µM
Compound: CC(C)N(O)C(=O)CCCCCCCCc1ccccc1 [BMY30224]

IC50 [3, 8]: 6.2 µM
Compound: Cc1cccc(CCCCCCCCC(=O)NO)c1 [BMY 30182, 9(3-methylphenyl)nonanohydroxamic acid]

% Inhibition at 100 μm [3]: 0%
Compound: CCCCCCOc1ccc(CCCCCCCCC(=O)NO)cc1 [BMY 30230, 9(4-Hexyloxyphenyl)nonanohydroxamic acid]

IC50 [1]: 30.9 µM | IC50 [2]: 12.5 µM | IC50 [3, 4]: 0.07 µM
Compound: CC(C)N(O)C(=O)CCCCCCc1ccccc1 [BMY30222]

IC50 [3, 5]: > 100 µM
Compound: O=C(NO)c1ccccc1 [n=0, reference compound]

IC50 [3, 5]: 11 µM
Compound: O=C(CCCCCCCCCCc1ccccc1)NO [Compound 2d]

IC50 [3, 8]: 5.4 µM
Compound: COc1cccc(CCCCCCCCC(=O)NO)c1 [BMY 30181, 9(3-methoxyphenyl)nonanohydroxamic acid]

IC50 [3, 8]: 6.1 µM
Compound: O=C(CCCCCCCCc1ccc(Cl)cc1)NO [BMY 30174, 9(4-chlorophenyl)nonanohydroxamic acid]

inhibition at 100 µM [3, 7]: 11% | IC50 [3, 5]: > 100 µM
Compound: O=C(CCCc1ccccc1)NO [BMY30077]
